Consider 19 compounds from PMC6690930, “Characterization and its implication of a novel taste receptor detecting nutrients in the honey bee, Apis mellifera” (Scientific Reports, 2019).

In assay [1] the target is T1, AmGr10 (Apis mellifera, UniProt A0A7M6W8K8). Kind of assay: Calcium imaging of HEK 293 cells expressing AmGr10. It counts as cell-based. Conditions: for Real time calcium imaging response: 50 μm amino acid alone, Videos S1, S2; for Real time calcium imaging response with IMP: 50 μm amino acid with 2 μm of IMP, Videos S3, S4. How it is done:
(§1) The expression vector was synthesized by inserting the cDNA of AmGr10 (Apis mellifera Gustatory receptor 10) into the multiple cloning site of the pcDNA3.1 vector using the restriction enzymes EcoRI and NotI (Koscamco, Anyang, Korea). Template pDNA for pcDNA3.1-AmGr10 and primers were then mixed with kit solutions. The total PCR volume and conditions were followed as described previously. 2.5 µg of the vector with AmGr10 was transfected into the HEK 293 cells using Lipofectamine 2000 (Invitrogen, CA, USA). The transfection method was according to the manufacturer’s manual. In brief, the Opti-MEM (Invitrogen, CA, USA) was mixed with Lipofectamine at the rate of 6 μL in 125 μL Opti-MEM. It was incubated for 5 min at room temperature. The plasmid DNA (2.5 μg) also was blended with 125 μL Opti-MEM media. These were combined and incubated for 20 min at room temperature. The solution was applied on the HEK cells. After 24 h, the transfected cells were selected using 200 µg/ml zeocin.
Transfected cell lines were subsequently cultured on dishes suitable for confocal microscopy (SPL, Pocheon, Korea). Before each experiment, the culture medium was removed and washed once in Hansk’s balanced salt solution (assay buffer). Transfected cells were loaded with calcium dye Fluo-4 AM (Molecular probes, USA), 2 μM in assay buffer to the dish, after which the cells were incubated in the dark for 90 min at room temperature. After incubation, 1X HBSS buffer was added to the confocal dish, which was then directly placed in the LSM700 inverted confocal microscope for observation (Zeiss, Oberkochen, Germany). Images were captured with a maximum of 100 frames per two-second interval. Test chemicals were dissolved in HBSS at various concentrations. Calcium influx into the transfected cells upon ligand binding was monitored and analyzed with ZEN software (Zeiss, Oberkochen, Germany). For data analysis, response refers to the number of cells responding in a field of about 300 transfected cells. Cells were counted as responders if the F ratio increased above 0.27 after addition of tastants.

For assay [2], the system named is non-transfected HEK 293 cells. As to the kind of experiment: Calcium imaging of non-transfected HEK 293 cells (control). The assay is classed as cell-based. As to conditions: Fig. S6. The method, then: Test chemicals were dissolved in HBSS at various concentrations.
For assay [3], the target named is T1, AmGr10. As to the kind of experiment: Two-electrode voltage-clamp recording of Xenopus oocytes expressing AmGr10. The assay is classed as cell-based. Conditions: for Response of oocytes injected with AmGr10 cRNA (in words): holding potential -70 mV; for Threshold concentration on Xenopus oocytes expressed AmGr10: in vitro. The method, then:
Full-length coding sequences of the AmGr10 cDNA were first cloned into pGEM-T easy vector (Promega, Madison, USA) and then subcloned into the pSDTF vector. In vitro transcription of cRNA was performed by using the mMESSAGE mMACHINE SP6 Kit (Ambion, Austin, TX, USA) according to the manufacturer’s protocol. Plasmids were linearized with EcoR1, and capped cRNA was transcribed using SP6 RNA polymerase. The cRNA was purified, resuspended in nuclease-free water at a concentration of 1 μg/μl, and stored at −80 °C in aliquots. Mature oocytes were freed from the follicle cells by treatment with collagenase A for 1 h at room temperature and incubated for 24 hours in modified Barth’s solution[16]. […] The oocytes were then incubated at 17 °C for 3~5 days in Barth’s solution. The two-electrode voltage-clamp technique was employed to observe tastant-induced currents at a holding potential of −70 mV.
In general terms: In two-electrode clamp one electrode senses voltage and the other passes current.

Assay [4] deals with T1, AmGr10. Kind of assay: Intracellular calcium assay (Fluo-4) in HEK 293 cells expressing AmGr10. The assay is classed as cell-based. Conditions: for Response of HEK 293 cells expressing AmGr10 (in words): 100 mM of amino acid. How it is done:
as §1
For calcium signaling assays, HEK 293 cells expressing AmGr10 were cultured for more than 3 days, and the Fluo-4 AM dye mix solution (Molecular probes) was loaded into the cell in 96-well microplate. […] To normalize the response, the changes in the fluorescence ratio were divided by the maximal fluorescence changes induced by each compound.

Assay [5] concerns hT1R1/hT1R3. As to conditions: cited from earlier work.
Assay [6] has as its system human. Further details: method as in PMID 24214976. Conditions: at high concentrations; cited from earlier work.
Assay [7] deals with sensilla chaetica on the galea. Kind of assay: Tip recording from galeal sensilla chaetica of honey bee. As to conditions: for Responses during 1 sec of stimulation: sensilla chaetica on the galea; for Threshold concentration necessary for tip recording: honey bee mouthparts in vivo; for Response of sensilla chaetica on the galea (in words): tip recording. It counts as in vivo, Apis mellifera. The source says: Tip recording® experiments were amplified and recorded from the left galea of the proboscis in honey bee mouthparts with IDAC4 with Autospikes software (Syntech, Hilversum, The Netherlands). Bees were immobilized by cooling on ice, restrained in a pipette tip, holding head and appendages in place for electrophysiological measurements. Recordings from gustatory sensilla in galea were made from so-called sensilla chaetica[81] at the tip of galea devoid of olfactory sensilla. These sensilla can be easily identified by their external morphology. A grounded reference electrode filled with 1 mM KCl was inserted into the compound eye. L-glutamate and L-aspartate were selected for tip recording testing and are common amino acids in plant pollen. For stimulation, 1 mM KCl with […] concentrations of 100 mM and 1 mM KCl alone were used. Stimuli were applied for approximately 5 s with an inter-stimulus interval of 3 min. […] These sensilla were excluded from the data analysis. The responses of galeal sensilla to all tested solutions were quantified by counting the number of spikes after stimulus onset.

The test system of assay [8] is AmGr3. Details: method as in PMID 28403157, PMID 29194737. Conditions: cited from earlier work.
Assay [9] relates to AmGr1. Details: method as in earlier work. Conditions: cited from earlier work.

The structures appear in SMILES notation.

T1 sequence (A0A7M6W8K8 entry or part of it): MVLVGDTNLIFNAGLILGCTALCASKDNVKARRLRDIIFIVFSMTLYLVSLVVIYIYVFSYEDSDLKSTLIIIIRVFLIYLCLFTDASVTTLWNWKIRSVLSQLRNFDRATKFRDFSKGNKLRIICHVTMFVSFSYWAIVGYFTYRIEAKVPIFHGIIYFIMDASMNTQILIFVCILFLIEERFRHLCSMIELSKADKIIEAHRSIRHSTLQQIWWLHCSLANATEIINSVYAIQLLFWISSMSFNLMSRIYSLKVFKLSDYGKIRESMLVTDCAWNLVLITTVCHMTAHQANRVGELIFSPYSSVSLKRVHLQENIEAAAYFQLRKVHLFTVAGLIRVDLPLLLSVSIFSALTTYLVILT

For `NC(CCP(=O)(O)O)C(=O)O` [L-AP4], in assay [1] (amino acids 50 mM, IMP 2 mM), the “AmGr10 response in presence of purine nucleotides” value is given as “greatly enhanced”.

With `CNc1ccc2oc(C[C@@H]3OC4(CC[C@@H]3C)O[C@H](C(C)C(=O)c3ccc[nH]3)[C@H](C)C[C@H]4C)nc2c1C(=O)O` (stereo partly drawn) [calcium ionophore], the “Calcium influx in non-transfected HEK 293 cells” value in assay [2] was “activated”.

For `Cn1c(=O)c2c(ncn2C)n(C)c1=O` [caffeine], in assay [3], the “Response of oocytes injected with AmGr10 cRNA (in words)” value (“Response of oocytes injected” below) was “not”.

As for `N=C(N)NCCC[C@H](N)C(=O)O` [L-arginine, L-Arginine], in [4], the “Response of HEK 293 cells expressing AmGr10 (in words)” value was “significant responses”. In addition, the “Response of hT1R1/hT1R3” value in [5] is recorded as “slight but significant responses”. Also, in [3], the “Response of oocytes injected” value is on record as “responsive”. Moreover, the “Umami taste in human sensory tests” value in assay [6] was “weak umami taste”.

For `N[C@@H](Cc1c[nH]cn1)C(=O)O` [L-histidine, L-Histidine], in [5], the “Response of hT1R1/hT1R3” value was “slight but significant responses”.

For the compound `N[C@@H](CC(=O)O)C(=O)O` [L-aspartate, L-Aspartic acid], in [1], the “Real time calcium imaging response” value is given as “clearly showed calcium responses” and the “Real time calcium imaging response with IMP” value is “clearly showed enhanced response”. The “Responses during 1 sec of stimulation” value in [7] (100 mM) is listed as 22 spikes. Moreover, in assay [7] (200 mM), the “Responses during 1 sec of stimulation” value is 51 spikes. In addition, the “Responses during 1 sec of stimulation” value in [7] (concentration of 50 mM) was found to be 6 spikes. Also, in assay [7], the “Threshold concentration necessary for tip recording” value was ~ 50 mM and the “Response of sensilla chaetica on the galea (in words)” value (“Response of sensilla chaetica” below) is given as “responded”. For the same compound, the “Response of HEK 293 cells expressing AmGr10 (in words)” value in assay [4] was “highest responses”. Also, in [3], the “Response of oocytes injected” value is reported as “responsive” and the “Threshold concentration on Xenopus oocytes expressed AmGr10” value is reported as ~ 10 mM.

For `Nc1nc2c(ncn2[C@@H]2O[C@H](COP(=O)(O)O)[C@@H](O)[C@H]2O)c(=O)[nH]1` [GMP, Guanosine 5′-monophosphate], the “Effect of GMP on responses to non-amino acid stimulus sucrose” value in assay [7] (2 mM GMP) is “no significant effect”. Also, the “Effect of GMP on nerve-firing rates to amino acids” value in [7] (2 mM GMP, 50 mM amino acids) is “significantly enhanced”.

Consider `N[C@@H](CO)C(=O)O` [L-serine, L-Serine], for which, in assay [5], the “Response of hT1R1/hT1R3” value was “slight but significant responses”.

With `O=C(CO)[C@@H](O)[C@H](O)[C@H](O)CO` [fructose], in assay [8], the “Response of AmGr3” value is given as “responds only”. Also, in [9], the “Response of AmGr1” value is recorded as “not”.

For the compound `OC[C@H]1O[C@H](O[C@H]2[C@H](O)[C@@H](O)C(O)O[C@@H]2CO)[C@H](O)[C@@H](O)[C@@H]1O` (mixture of isomers) [maltose], the “Response of AmGr1” value in assay [9] is “responded”.

Regarding `OC[C@H]1O[C@H](O[C@H]2O[C@H](CO)[C@@H](O)[C@H](O)[C@H]2O)[C@H](O)[C@@H](O)[C@@H]1O` [trehalose], the “Response of AmGr1” value in [9] was “responded”.

With `N[C@@H](CCC(=O)O)C(=O)O` [L-glutamate, L-Glutamic acid], in assay [1], the “Real time calcium imaging response” value is “clearly showed calcium responses” and the “Real time calcium imaging response with IMP” value is reported as “clearly showed enhanced response”. Moreover, the “Responses during 1 sec of stimulation” value in [7] (100 mM) was found to be 27 spikes. The “Responses during 1 sec of stimulation” value in [7] (200 mM) turned out to be 55 spikes. Besides, the “Responses during 1 sec of stimulation” value in [7] (concentration of 50 mM) amounted to 15 spikes. In assay [7], the “Threshold concentration necessary for tip recording” value was ~ 50 mM and the “Response of sensilla chaetica” value is reported as “responded”. For the same compound, the “Response of HEK 293 cells expressing AmGr10 (in words)” value in assay [4] was “highest responses”. In addition, in [3], the “Response of oocytes injected” value is listed as “responsive” and the “Threshold concentration on Xenopus oocytes expressed AmGr10” value is ~ 10 mM.

Turning to `C[C@H](N)C(=O)O` [L-Ala], in [5], the “Response of hT1R1/hT1R3” value is on record as “slight but significant responses”.

On to `NC(=O)CC[C@H](N)C(=O)O` [L-glutamine, L-Glutamine], for which the “Response of HEK 293 cells expressing AmGr10 (in words)” value in assay [4] is “significant responses”. Besides, the “Response of hT1R1/hT1R3” value in assay [5] is given as “slight but significant responses”. Moreover, in assay [3], the “Response of oocytes injected” value is “responsive”. The “Umami taste in human sensory tests” value in [6] is “weak umami taste”.

For the compound `NC(=O)C[C@H](N)C(=O)O` [L-asparagine, L-Asparagine], the “Response of HEK 293 cells expressing AmGr10 (in words)” value in assay [4] is recorded as “significant responses”. Also, the “Response of hT1R1/hT1R3” value in assay [5] is “slight but significant responses”. Moreover, in [3], the “Response of oocytes injected” value is “responsive”. Also, the “Umami taste in human sensory tests” value in assay [6] is on record as “weak umami taste”.

On to `NCCCC[C@H](N)C(=O)O` [L-lysine, L-Lysine], for which, in [4], the “Response of HEK 293 cells expressing AmGr10 (in words)” value is recorded as “significant responses”. Further, the “Response of oocytes injected” value in assay [3] is reported as “responsive”.

Regarding `OC[C@H]1OC(O)[C@H](O)[C@@H](O)[C@@H]1O` (stereo partly drawn) [glucose], the “Response of AmGr1” value in assay [9] was “responded”.

For the compound `OC[C@H]1O[C@@](CO)(O[C@H]2O[C@H](CO)[C@@H](O)[C@H](O)[C@H]2O)[C@@H](O)[C@@H]1O` [sucrose, Sucrose], in [7], the “Response of sensilla chaetica” value is recorded as “sensitive”. Further, the “Response of AmGr1” value in assay [9] is reported as “responded”.

Turning to `N[C@@H](CCC(=O)O)C(=O)[O-].[Na+]` [MSG, L-Glutamic acid monosodium salt], in [4] (concentration steps, Fig. S5), the “Response to MSG of AmGr10-transfected HEK 293 cells vs non-transfected” value is given as “significantly increased”. In addition, the “Sensitivity of HEK 293 cells expressing hT1R1/hT1R3” value in assay [5] (unlike non-transfected HEK 293 cells) is given as “significantly sensitive”.
